Laboratory results as given in publication PMC6581955, “Rosmarinic acid suppresses Alzheimer’s disease development by reducing amyloid β aggregation by increasing monoamine secretion” (Scientific Reports, 2019).

Tests used:
[1] = cited from earlier work; for intestinal permeability: orally ingested polyphenols
Aβ [2] = test system: Aβ; parameters: method as in PMID 14994335; details: screen of five polyphenols; cited from earlier work
Aβ1–42 = target: T1, Aβ1–42 (Homo sapiens, UniProt P05067); assay: ThT assay (SensoLyte Thioflavin T β-Amyloid (1–42) Aggregation Kit); assay type: biochemical; details: 100 μM monoamine; for relative ThT fluorescence intensity (Aβ aggregation): 45 μM Aβ1–42, 37 °C; for time at which Aβ aggregation was significantly (p < 0.05) inhibited: 45 μM Aβ1–42, Dunnett's test
T1 construct: Dissolved lyophilized Aβ1–42 (PEPTIDE INSTITUTE, INC., Osaka, Japan); purchased PEPTIDE INSTITUTE, INC., Osaka, Japan
T1 sequence (P05067 672-713): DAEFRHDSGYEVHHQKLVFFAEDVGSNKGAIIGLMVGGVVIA
Description: Dissolved lyophilized Aβ1–42 (PEPTIDE INSTITUTE, INC., Osaka, Japan) in 2 mM NaOH produced a peptide concentration of 0.5 mg/mL, which was then subjected to sonication by a bath-type sonicator for 1 min prior to re-lyophilizing the resulting solution. The NaOH-treated Aβ1–42 lyophilizate was dissolved in 500 μL distilled water and sonicated for 1 min. We added 500 μL of 20 mM phosphate buffer and centrifuged the resulting solution for 10 min at 16,000 × g. The supernatant was used as the Aβ1–42 solution. Aggregation of Aβ1–42 was measured using the SensoLyte® Thioflavin T β-Amyloid (1–42) Aggregation Kit (ANASPEC Inc., Fremont, CA.) according to the manufacturer’s protocol. To measure the Aβ1–42 fibril formation in the 96-well black microplates, 10 μL of 2 mM ThT and 5 μL of each monoamine solution (2 mM) were added into each well and mixed with 85 μL Aβ1–42 solution. The final concentration of Aβ1–42 was 45 μM and that of each monoamine concentration was 100 μM. The ThT fluorescence signal was monitored with Ex/Em = 440 nm/484 nm using Varioskan LUX (Thermo Fisher Scientific) at 37 °C at intervals of 5 min and 10 min for 0–125 min and 140–175 min, respectively.
All samples were tested in triplicate, and data were shown as relative fluorescence units by subtracting the fluorescence level of the blank from the actual value.

Aβ [3] = test system: Aβ; parameters: method as in PMID 15059976, PMID 23913715; details: cited from earlier work
[4] = In vivo RA transferability test (HPLC-ECD of plasma and brain); parameters: species or system C57BL/6 J mice; details: C57BL/6 J, mouse, plasma, oral, 0.5 % (fed), mice fed 0.5% RA for 7 weeks, mean ± S.E. (n = 5)
Description: The blood and whole brain were collected under isoflurane anesthesia after 7 weeks of breeding (C and RA group). The blood samples were centrifuged at 1,800 × g at 4 °C for 10 min to obtain EDTA plasma.
Phosphate-buffered saline (PBS) (1 mL/0.1 g of brain tissue) was added to the brain tissue sample and homogenized with a Polytron homogenizer. After that, the samples were centrifuged at 4,000 × g at 4 °C for 40 min to obtain the brain extract supernatant. The plasma and brain extract were processed as follows. In the β-glucuronidase-treated group, 50 μL of plasma or brain extract was suspended in 50 μL of 200 U β-glucuronidase and 0.1 M sodium acetate buffer (pH 5.0). Then the samples were incubated at 37 °C for 45 min. In the non-treated group, 50 μL of plasma or brain extract were suspended in 50 μL of 0.1 M sodium acetate buffer and incubated as above. After incubation, 200 μL of 0.83 M methyl acetate buffer was added to the samples of both groups, the protein was precipitated by vortex stirring for 1 minute, treated with sonication for 1 minute, and centrifuged at 8,500 × g at 4 °C for 5 min. The supernatants were recovered and passed through 0.45 μm filters, and the concentrations of RA and metabolites in the filtrates were measured using an Ultimate 3000 HPLC-ECD (Thermo Fisher scientific, Massachusetts, US). The conditions of chromatography were the same as the previous report.

[5] = test system: brain capillary endothelial cell monolayers; assay: BBB permeability in an in vitro BBB model (BBB Kit); assay type: in vitro ADME; details: caffeine positive, Na-F negative control, n = 3
Description: We measured the BBB permeability by using the BBB Kit (PharmaCo-Cell, Nagasaki, Japan) according to the manufacturer’s instructions. CA was used as a positive control, and Na-F as a negative control. The concentration of the assay buffer on the brain parenchyma side was measured by HPLC–ECD as per the in vivo RA transferability test. Na-F was measured with Ex/Em = 485/538 nm using a FlexStarion 3-fluorescence-plate reader (Molecular Devices, CA, USA). The permeability coefficient (Pe: × 10^−6 cm/sec) was calculated as follows using the concentration of the test substance added to the luminal side ([C]Luminal), the concentration of test compound that passed through to the […] every 20 minutes ([C]Abluminal), and the amount on the brain parenchyma side (VAbluminal). Volume(µL)=([C]Abluminal×VAbluminal)/[C]Luminal The amount of permeation was plotted every 20 min and the value of the slope of the formula of the quantity transmitted for each time was used as the permeation index (PS). […] 1/PSendothelial=1/PStotal−1/PSmembrane Pe was calculated by dividing PSendothelial by the insert surface area (A). […]

brain monoamines = assay: Monoamine concentration in the whole brain of mice fed RA for 7 weeks (HPLC-ECD); assay type: in vivo, C57BL/6 J mice; details: 0.5% RA diet for 7 weeks vs control
Description: The whole brain was collected under isoflurane anesthesia after 7 weeks of breeding (C and RA group). Buffer (2.0 mM NaHSO3, 20 μM EDTA • 2Na, 0.10 M HClO4; 1 mL/0.1 g of brain tissue) was added to the brain sample, the mixture was then homogenized with a Polytron and centrifuged at 12,000 × g at 4 °C for 5 min to obtain a brain extract supernatant. The supernatants were recovered, passed through 0.45 μm filters, and the concentration of monoamines in the filtrates was measured using HPLC-ECD. The conditions of chromatography were given in Supplemental Methods.

DA in brain sections = assay: DA imaging by IMS (MALDI-TOFMS); assay type: in vivo, C57BL/6 J mice; details: 0.5% RA diet for 10 days
Description: Because it has been reported that isoflurane anesthesia increases the release of DA in rat striatum, we adopted decapitation after cervical dislocation without anesthesia to euthanize the mice after 10 days of breeding (C and RA group). The left hemisphere of the brain of each mouse was collected, then sagittal sections 8 μm thick were prepared using a cryostat (CM-3050 S; LEICA, Germany) at −25 °C and mounted on a glass slide coated with indium tin oxide. Sections were sprayed with DPP and incubated at 40 °C for 30 min, and then sprayed with 2,5-dihydroxybenzoic acid to improve ionization efficiency. The surface of the sections was ionized by irradiation with laser light at 200 μm intervals using an Ultrafle Xtreme (matrix-assisted laser desorption/ionization time-of-flight mass spectrometer) (MALDI-TOFMS) (Bruker Daltonik GmbH, Bremen, Germany). The peak of DPP-derivatized DA (m/z: 368.2), which constitutes a complex of the target substance (DA) and DPP, was measured two-dimensionally. Only DA that could be derivatized was measured.

[6] = test system: monoamines in cerebral cortex, striatum, hippocampus; assay: Monoamine concentration in brain regions after single dose or 11 days of RA; assay type: in vivo, mice
Description: In order to examine the effect of a single dose of RA, we conducted intragastric administration of RA at 0.1 m mol/kgBW to wild type mice and measured the monoamine concentration in three brain regions (cerebral cortex, striatum, and hippocampus) after 0, 60, and 240 min. […] Therefore, we extended the RA administration period to 11 days.

[7] = test system: mRNA of DA-metabolizing enzymes, Tieg2, Tgf-β1; assay: Relative mRNA measurement in cerebral cortex, SN and VTA by qRT-PCR; assay type: in vivo, C57BL/6 J mice
Source text: The mice were divided into two groups, C and RA, as mentioned above, and fed with the appropriate diet for 11 days. We collected SN and VTA from the brain according to methods previously described. In brief, we collected the whole brain, washed it with saline, and obtained 1 mm thick coronal sections using a brain slicer BS-Z 2000C (Muromachi Kikai Co., Ltd., Tokyo, Japan). Referring to the Allen Brain Atlas[55], we acquired the SN and VTA from the relevant sections.
Total RNA was extracted from SN, and VTA using TRIzol (Invitrogen) according to the manufacturer’s manual. After checking the quality of total RNA, we synthesized cDNA using PrimeScript^TM RT Master Mix (Perfect Real Time) (TaKaRa Bio, Shiga, Japan). The primer sequences and conditions for our qRT–PCR are given in Suppl. Table S1 and Supplemental Methods. Results are expressed as mean of fold change compared with control condition (SE as error bars, n = 5, 6). All samples were tested in triplicate and the data were normalized to GAPDH (cerebral cortex) or β-actin (SN and VTA).

[8] = Side effects in the animal study; assay type: in vivo, mice; details: RA-fed animals
Aβ [9] = test system: Aβ; parameters: method as in PMID 19893028; details: Tg2576 mice, cited from earlier work
[10] = test system: brain serotonin concentration; parameters: method as in PMID 23009399; details: via inhibition of Maoa; cited from earlier work
striatum DA and NE = test system: striatum DA and NE; parameters: method as in PMID 25756794; details: fed for 20 days; with elevated Th expression in SN; cited from earlier work
[11] = 0.5% RA diet 11 days vs controls, P < 0.05
[12] = RA diet 11 days, normalized to β-actin

## COc1cc(/C=C/C(=O)CC(=O)/C=C/c2ccc(O)c(OC)c2)ccc1O [Cur, curcumin, reference compound]
[1]
  intestinal permeability: approximately 0.1%
Aβ [2]
  Aβ aggregation in vitro: significantly inhibited

## NCCc1ccc(O)c(O)c1 [DA, dopamine]
Aβ1–42
  relative ThT fluorescence intensity (Aβ aggregation): lower than that in their absence
  time at which Aβ aggregation was significantly (p < 0.05) inhibited: 15 to 160 min
Aβ [3]
  Aβ aggregation: inhibit

## O=C(O)Cc1ccc(O)c(O)c1 [DOPAC, 3,4-dihydroxyphenylacetic acid]
Aβ1–42
  relative ThT fluorescence intensity (Aβ aggregation): lower than that in their absence

## COc1cc(/C=C/C(=O)O)ccc1O [FA, ferulic acid]
Aβ [2]
  Aβ aggregation in vitro: significantly inhibited

## N[C@@H](Cc1ccc(O)c(O)c1)C(=O)O [L-DOPA, levodopa]
Aβ1–42
  relative ThT fluorescence intensity (Aβ aggregation): lower than that in their absence
  time at which Aβ aggregation was significantly (p < 0.05) inhibited: 20 to 160 min
Aβ [3]
  Aβ aggregation: inhibit

## NC[C@H](O)c1ccc(O)c(O)c1 [NE, norepinephrine]
Aβ1–42
  relative ThT fluorescence intensity (Aβ aggregation): lower than that in their absence
  time at which Aβ aggregation was significantly (p < 0.05) inhibited: 20 to 160 min

## O=C(/C=C/c1ccc(O)c(O)c1)O[C@H](Cc1ccc(O)c(O)c1)C(=O)O [RA, rosmarinic acid]
[4]; β-glucuronidase not reacted
  concentration at 7 weeks: 590 ± 220 nM
[4]; β-glucuronidase reacted
  concentration at 7 weeks: 750 ± 150 nM
[5]
  transendothelial permeability (Pe): lowest value
Brain monoamines
  DA concentration in whole brain: changed but not significantly
  DOPAC concentration in whole brain: significantly increased
  L-DOPA concentration in whole brain: significantly increased
  NE concentration in whole brain: changed but not significantly
DA in brain sections
  DPP-derivatized DA signals in cerebral cortex and striatum: more strongly than in control group
[6]; [11]
  DOPAC level in cerebral cortex: increased significantly
  L-DOPA level in cerebral cortex: increased significantly
  NE level in cerebral cortex: increased significantly
[6]; 0.5% RA diet 11 days vs controls, P = 0.068
  DA level in cerebral cortex: somewhat increased
[6]; RA diet 11 days, data not shown
  monoamine concentration in striatum and hippocampus: not significantly changed
[6]; single intragastric dose 0.1 m mol/kgBW, 0, 60, 240 min, data not shown
  monoamine concentration in cerebral cortex, striatum and hippocampus: no significant differences
[7]; RA diet 11 days
  Tgf-β1 gene expression in SN and VTA: significantly downregulated
[7]; RA diet 11 days vs controls
  Tieg2 gene expression in SN and VTA: significantly decreased
[7]; RA diet 11 days, P = 0.13
  Th mRNA level in cerebral cortex: somewhat increased
[7]; RA diet 11 days, normalized to GAPDH
  mRNA levels of DA-metabolizing enzymes in cerebral cortex: no significant difference
[7]; [12]
  Comt mRNA expression in SN: significantly downregulated
  Maob mRNA expression in SN: significantly downregulated
  Maob mRNA expression in VTA: significantly downregulated
[8]
  side effects including nausea and vomiting: not observed
[1]
  intestinal permeability: ~1%
[1]; previous in vitro study
  intestinal permeability, of intake volume: < 1%
Aβ [2]
  Aβ aggregation in vitro: significantly inhibited
Aβ [9]; RA diet for 10 months
  Aβ deposition in the brain (immunohistochemistry): significantly decreased
Aβ [9]
  Aβ aggregation inhibitory activity in the brain, among five polyphenols: highest

## O=c1c(O)c(-c2ccc(O)c(O)c2)oc2cc(O)cc(O)c12 [quercetin]
[10]
  brain serotonin concentration: suppressed a decrease

## Cn1cnc2c1c(=O)[nH]c(=O)n2C [theobromine]
Striatum DA and NE
  DA and NE concentrations in the striatum: significant increases
